# Laboratory results: ChEMBL document CHEMBL5321208, “The effect of side chain variations on quinazoline-pyrimidine G-quadruplex DNA ligands” (Eur J Med Chem, 2023)
# Calls of active or inactive are those of the source. The calls are words filed in the database; no cut-off is given here.
# What was measured:
# Assay type in all cases: nucleic-acid assay
# Details in all cases: dose 1-8 µM
# [1] = system: dsDNA; assay: Binding affinity to double stranded DNA (unknown origin) assessed as thermal stabilization at 1 to 8 uM measured at 10 to 95 degreeC by FRET analysis
# [2] = system: Quadruplex DNA; assay: Binding affinity to FAM/TAMRA-labelled parallel c-MYC Pu24T G4 DNA (unknown origin) assessed as thermal stabilization at 1 to 8 uM measured at 10 to 95 degreeC by FRET analysis
# [3] = system: Quadruplex DNA; assay: Binding affinity to FAM/TAMRA-labelled parallel KRAS G4 DNA (unknown origin) assessed as thermal stabilization at 1 to 8 uM measured at 10 to 95 degreeC by FRET analysis
Activity [1],Activity [2],Activity [3],SMILES
inactive,,,Cc1cc(NCCN2CCOCC2)nc(Nc2nc(C)c3ccc4c(c3n2)CCCC4)n1
inactive,Active,,Cc1cc(NCCCN)nc(Nc2nc(C)c3ccc4c(c3n2)CCCC4)n1
inactive,Active,Active,Cc1cc(N2CCNCC2)nc(Nc2nc(C)c3ccc4c(c3n2)CCCC4)n1
inactive,Active,Active,Cc1cc(N2CCNCC2)nc(Nc2nc(C)c3ccc4c(c3n2)CCC4)n1
inactive,Active,,Cc1cc(N2CCN(C)CC2)nc(Nc2nc(C)c3ccc4c(c3n2)CCCC4)n1
,Active,,CCN(CC)CCCCCNc1cc(C)nc(Nc2nc(C)c3ccc4c(c3n2)CCCC4)n1
inactive,Active,,CCN(CC)CCNc1cc(C)nc(Nc2nc(C)c3ccc4c(c3n2)CCCC4)n1
inactive,Active,,Cc1cc(NCCN2CCNCC2)nc(Nc2nc(C)c3ccc4c(c3n2)CCCC4)n1
inactive,Active,Active,Cc1cc(NCCN2CCN(C)CC2)nc(Nc2nc(C)c3ccc4c(c3n2)CCCC4)n1
inactive,,,Cc1cc(NCCN2CCOCC2)nc(Nc2nc(C)c3ccc4c(c3n2)CCC4)n1
inactive,Active,,Cc1cc(NCCCN2CCNCC2)nc(Nc2nc(C)c3ccc4c(c3n2)CCCC4)n1

# Further lines, the compound ahead of its results:
SMILES,Activity [1],Activity [2],Activity [3]
CCOC(=O)CCN1CCN(c2cc(C)nc(Nc3nc(C)c4ccc5c(c4n3)CCCC5)n2)CC1,inactive,inactive,inactive
Cc1cc(N2CCN(c3ncccn3)CC2)nc(Nc2nc(C)c3ccc4c(c3n2)CCC4)n1,inactive,inactive,inactive
CCN(CC)c1cc(C)nc(Nc2nc(C)c3ccc4c(c3n2)CCCC4)n1,inactive,Active,
CCOC(=O)CCN1CCN(c2cc(C)nc(Nc3nc(C)c4ccc5c(c4n3)CCC5)n2)CC1,inactive,inactive,inactive
Cc1cc(N(C)C)nc(Nc2nc(C)c3ccc4c(c3n2)CCCC4)n1,inactive,Active,
Cc1cc(N2CCN(c3ncccn3)CC2)nc(Nc2nc(C)c3ccc4c(c3n2)CCCC4)n1,inactive,inactive,inactive
Cc1cc(N2CCN(C(=O)OC(C)(C)C)CC2)nc(Nc2nc(C)c3ccc4c(c3n2)CCCC4)n1,inactive,inactive,inactive
Cc1cc(N2CCOCC2)nc(Nc2nc(C)c3ccc4c(c3n2)CCC4)n1,inactive,,
Cc1cc(N2CCN(C(=O)OC(C)(C)C)CC2)nc(Nc2nc(C)c3ccc4c(c3n2)CCC4)n1,inactive,inactive,inactive
CCN(CC)c1cc(C)nc(Nc2nc(C)c3ccc4c(c3n2)CCC4)n1,inactive,,
Cc1cc(N2CCOCC2)nc(Nc2nc(C)c3ccc4c(c3n2)CCCC4)n1,inactive,,
